Measured values reported in PubChem BioAssay (NCI).
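All cell lines were grown in 96-well plates and treated with compound for 48 hours. Abbreviation: GI50, concentration required for 50% inhibition of growth. TGI marks complete inhibition of growth.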

How the values were obtained:
Experiment in all cases: NCI anticancer screen, dose series, 48 h
HS 578T breast = system: HS 578T breast
NCI-H226 lung = system: NCI-H226 lung
CAKI-1 renal = system: CAKI-1 renal
SK-MEL-5 melanoma = system: SK-MEL-5 melanoma
T-47D breast = system: T-47D breast
A498 renal = system: A498 renal
TK-10 renal = system: TK-10 renal
HCT-15 colon = system: HCT-15 colon
U251 CNS = system: U251 CNS
EKVX NSCLC = system: EKVX NSCLC
MDA-MB-468 breast = system: MDA-MB-468 breast
MDA-MB-231 breast = system: MDA-MB-231 breast
BT-549 breast = system: BT-549 breast
HOP-92 NSCLC = system: HOP-92 NSCLC
UACC-62 melanoma = system: UACC-62 melanoma
MCF7 breast = system: MCF7 breast
SF-268 CNS = system: SF-268 CNS
OVCAR-8 ovarian = system: OVCAR-8 ovarian
OVCAR-5 ovarian = system: OVCAR-5 ovarian
CCRF-CEM leukemia = system: CCRF-CEM leukemia
ACHN renal = system: ACHN renal
OVCAR-3 ovarian = system: OVCAR-3 ovarian
SN12C renal = system: SN12C renal
SF-539 CNS = system: SF-539 CNS
PC-3 prostate = system: PC-3 prostate
SF-295 CNS = system: SF-295 CNS
UACC-257 melanoma = system: UACC-257 melanoma
NCI-H522 lung = system: NCI-H522 lung
K-562 leukemia = system: K-562 leukemia
M14 melanoma = system: M14 melanoma
A549 NSCLC = system: A549 NSCLC
RPMI-8226 leukemia = system: RPMI-8226 leukemia
MOLT-4 leukemia = system: MOLT-4 leukemia
HCC-2998 colon = system: HCC-2998 colon
NCI/ADR-RES ovarian = system: NCI/ADR-RES ovarian
HL-60(TB) leukemia = system: HL-60(TB) leukemia
MDA-MB-435 = system: MDA-MB-435
DU-145 prostate = system: DU-145 prostate
IGROV1 ovarian = system: IGROV1 ovarian
OVCAR-4 ovarian = system: OVCAR-4 ovarian
RXF 393 renal = system: RXF 393 renal
HOP-62 NSCLC = system: HOP-62 NSCLC
LOX IMVI melanoma = system: LOX IMVI melanoma
SNB-75 CNS = system: SNB-75 CNS
SK-MEL-2 melanoma = system: SK-MEL-2 melanoma
SK-MEL-28 melanoma = system: SK-MEL-28 melanoma
HCT-116 colon = system: HCT-116 colon
SW-620 colon = system: SW-620 colon
KM12 colon = system: KM12 colon
NCI-H23 lung = system: NCI-H23 lung
HT29 colon = system: HT29 colon
SNB-19 CNS = system: SNB-19 CNS
MALME-3M melanoma = system: MALME-3M melanoma
786-0 renal = system: 786-0 renal

Cc1ccc2c(c1)nc(-c1ccccc1)n2CC(=O)N=Nc1c(O)[nH]c2ccc(Br)cc12
GI50 (HS 578T breast): 1860 nM | TGI (HS 578T breast): 5620 nM | GI50 (NCI-H226 lung): 1470 nM | TGI (NCI-H226 lung): 2970 nM | GI50 (CAKI-1 renal): 1540 nM | TGI (CAKI-1 renal): 3620 nM | GI50 (SK-MEL-5 melanoma): 1740 nM | TGI (SK-MEL-5 melanoma): 3580 nM | GI50 (T-47D breast): 1820 nM | TGI (T-47D breast): 4400 nM | GI50 (A498 renal): 2000 nM | TGI (A498 renal): 3990 nM | GI50 (TK-10 renal): 3120 nM | TGI (TK-10 renal): 7140 nM | GI50 (HCT-15 colon): 1690 nM | TGI (HCT-15 colon): 3180 nM | GI50 (U251 CNS): 1760 nM | TGI (U251 CNS): 3430 nM | GI50 (EKVX NSCLC): 1380 nM | TGI (EKVX NSCLC): 2920 nM | GI50 (MDA-MB-468 breast): 1750 nM | TGI (MDA-MB-468 breast): 3180 nM | GI50 (MDA-MB-231 breast): 1890 nM | TGI (MDA-MB-231 breast): 4250 nM | GI50 (BT-549 breast): 1850 nM | TGI (BT-549 breast): 3530 nM | GI50 (HOP-92 NSCLC): 1220 nM | TGI (HOP-92 NSCLC): 2640 nM | GI50 (UACC-62 melanoma): 1440 nM | TGI (UACC-62 melanoma): 2800 nM | GI50 (MCF7 breast): 1540 nM | TGI (MCF7 breast): 3160 nM | GI50 (SF-268 CNS): 2440 nM | TGI (SF-268 CNS): 8560 nM | GI50 (OVCAR-8 ovarian): 1890 nM | TGI (OVCAR-8 ovarian): 3800 nM | GI50 (OVCAR-5 ovarian): 1830 nM | TGI (OVCAR-5 ovarian): 4280 nM | GI50 (CCRF-CEM leukemia): 2090 nM | TGI (CCRF-CEM leukemia): 4960 nM | GI50 (ACHN renal): 1590 nM | TGI (ACHN renal): 2940 nM | GI50 (OVCAR-3 ovarian): 1910 nM | TGI (OVCAR-3 ovarian): 3450 nM | GI50 (SN12C renal): 1780 nM | TGI (SN12C renal): 4160 nM | GI50 (SF-539 CNS): 1630 nM | TGI (SF-539 CNS): 3020 nM | GI50 (PC-3 prostate): 1560 nM | TGI (PC-3 prostate): 3160 nM | GI50 (SF-295 CNS): 1540 nM | TGI (SF-295 CNS): 2930 nM | GI50 (UACC-257 melanoma): 1730 nM | TGI (UACC-257 melanoma): 3810 nM | GI50 (NCI-H522 lung): 1870 nM | TGI (NCI-H522 lung): 4100 nM | GI50 (K-562 leukemia): 3150 nM | TGI (K-562 leukemia): > 100000 nM | GI50 (M14 melanoma): 1690 nM | TGI (M14 melanoma): 3350 nM | GI50 (A549 NSCLC): 1900 nM | TGI (A549 NSCLC): 4030 nM | GI50 (RPMI-8226 leukemia): 2180 nM | TGI (RPMI-8226 leukemia): 5460 nM | GI50 (MOLT-4 leukemia): 2220 nM | TGI (MOLT-4 leukemia): 5620 nM | GI50 (HCC-2998 colon): 1850 nM | TGI (HCC-2998 colon): 3440 nM | GI50 (NCI/ADR-RES ovarian): 1700 nM | TGI (NCI/ADR-RES ovarian): 3270 nM | GI50 (HL-60(TB) leukemia): 3160 nM | TGI (HL-60(TB) leukemia): > 100000 nM | GI50 (MDA-MB-435): 1680 nM | TGI (MDA-MB-435): 3770 nM | GI50 (DU-145 prostate): 2290 nM | TGI (DU-145 prostate): 4850 nM | GI50 (IGROV1 ovarian): 1710 nM | TGI (IGROV1 ovarian): 3290 nM | GI50 (OVCAR-4 ovarian): 1830 nM | TGI (OVCAR-4 ovarian): 3810 nM | GI50 (RXF 393 renal): 773 nM | TGI (RXF 393 renal): 2220 nM | GI50 (HOP-62 NSCLC): 1750 nM | TGI (HOP-62 NSCLC): 3390 nM | GI50 (LOX IMVI melanoma): 1550 nM | TGI (LOX IMVI melanoma): 2910 nM | GI50 (SNB-75 CNS): 1100 nM | TGI (SNB-75 CNS): 3060 nM | GI50 (SK-MEL-2 melanoma): 1810 nM | TGI (SK-MEL-2 melanoma): 3640 nM | GI50 (SK-MEL-28 melanoma): 1650 nM | TGI (SK-MEL-28 melanoma): 3060 nM | GI50 (HCT-116 colon): 1740 nM | TGI (HCT-116 colon): 3340 nM | GI50 (SW-620 colon): 2200 nM | TGI (SW-620 colon): 5470 nM | GI50 (KM12 colon): 2060 nM | TGI (KM12 colon): 4890 nM | GI50 (NCI-H23 lung): 1770 nM | TGI (NCI-H23 lung): 3360 nM | GI50 (HT29 colon): 1780 nM | TGI (HT29 colon): 3450 nM | GI50 (SNB-19 CNS): 1950 nM | TGI (SNB-19 CNS): 4280 nM | GI50 (MALME-3M melanoma): 1630 nM | TGI (MALME-3M melanoma): 3100 nM | GI50 (786-0 renal): 1730 nM | TGI (786-0 renal): 3160 nM
